Laboratory results as given in patent US20230293519A1, “INTEGRIN INHIBITORS AND USES THEREOF IN COMBINATION WITH OTHER AGENTS” (Pliant Therapeutics, Inc., priority 2021, published 2023).

target: recombinant human integrin αvβ6 (Homo sapiens (Human), UniProt P06756+P18564); experiment: Solid phase integrin αvβ6 binding assay; details: IC50 presented in four ranges; read-out: αvβ6 Inhibition IC50 (nM) - range
Description: (§1) Microplates were coated with recombinant human integrin αvβ6 (2 µg/mL) in PBS (100 µL/well 25° C., overnight). The coating solution was removed, washed with wash buffer (0.05% Tween 20; 0.5 mM MnCl2; in 1x TBS). The plate was blocked with 200 µL/well of Block Buffer (1% BSA; 5% sucrose; 0.5 mM MnCl2; in 1x TBS) at 37° C. for 2 h. Dilutions of testing compounds and recombinant TGFβ1 LAP (0.67 µg/mL) in binding buffer (0.05% BSA; 2.5% sucrose; 0.5 mM MnCl2; in 1x TBS) were added. The plate was incubated for 2 hours at 25° C., washed, and incubated for 1 hour with Biotin-Anti-hLAP. Bound antibody was detected by peroxidase-conjugated streptavidin. The IC50 values for testing compounds were calculated by a four-parameter logistic regression.
The compounds tested were compound samples prepared according to procedures described in the Synthetic Examples section, with the stereochemical purity as indicated in the Examples.
as §1, with “A third series of exemplary compounds was selected for testing in the solid phase integrin αvβ6 binding assay. The compounds tested were compound samples prepared according to procedures described in the Synthetic Examples section, with the stereochemical purity as indicated in the Examples. As in Example B1, microplates” for “Microplates”

recombinant human integrin αvβ6, sequence (P06756 31-889): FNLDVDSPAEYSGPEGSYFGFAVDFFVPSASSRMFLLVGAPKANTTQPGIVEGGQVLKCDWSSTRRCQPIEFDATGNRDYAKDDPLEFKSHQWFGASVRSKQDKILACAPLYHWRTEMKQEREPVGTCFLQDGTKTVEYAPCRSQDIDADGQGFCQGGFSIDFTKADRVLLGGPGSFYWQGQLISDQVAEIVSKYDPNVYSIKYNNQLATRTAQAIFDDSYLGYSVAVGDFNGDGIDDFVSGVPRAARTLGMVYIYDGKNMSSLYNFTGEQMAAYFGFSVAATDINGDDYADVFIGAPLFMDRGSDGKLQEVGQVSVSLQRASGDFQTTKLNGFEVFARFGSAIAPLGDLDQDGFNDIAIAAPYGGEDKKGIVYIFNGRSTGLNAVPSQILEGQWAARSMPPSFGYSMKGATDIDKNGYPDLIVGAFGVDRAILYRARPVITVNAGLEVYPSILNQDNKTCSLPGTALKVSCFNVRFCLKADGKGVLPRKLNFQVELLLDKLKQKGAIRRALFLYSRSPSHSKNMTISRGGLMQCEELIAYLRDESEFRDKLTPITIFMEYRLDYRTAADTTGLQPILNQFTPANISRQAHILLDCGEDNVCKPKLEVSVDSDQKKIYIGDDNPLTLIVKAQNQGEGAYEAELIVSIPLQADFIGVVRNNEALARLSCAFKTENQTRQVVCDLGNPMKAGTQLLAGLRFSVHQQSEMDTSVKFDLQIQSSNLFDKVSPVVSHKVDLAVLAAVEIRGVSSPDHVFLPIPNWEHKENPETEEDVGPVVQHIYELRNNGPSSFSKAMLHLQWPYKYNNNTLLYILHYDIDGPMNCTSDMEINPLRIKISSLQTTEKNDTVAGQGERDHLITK
recombinant human integrin αvβ6, sequence (P06756 890-992 partner): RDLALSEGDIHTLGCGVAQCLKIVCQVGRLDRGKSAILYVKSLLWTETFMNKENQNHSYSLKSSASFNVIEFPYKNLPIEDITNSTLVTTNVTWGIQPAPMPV
recombinant human integrin αvβ6, sequence (P18564 22-707): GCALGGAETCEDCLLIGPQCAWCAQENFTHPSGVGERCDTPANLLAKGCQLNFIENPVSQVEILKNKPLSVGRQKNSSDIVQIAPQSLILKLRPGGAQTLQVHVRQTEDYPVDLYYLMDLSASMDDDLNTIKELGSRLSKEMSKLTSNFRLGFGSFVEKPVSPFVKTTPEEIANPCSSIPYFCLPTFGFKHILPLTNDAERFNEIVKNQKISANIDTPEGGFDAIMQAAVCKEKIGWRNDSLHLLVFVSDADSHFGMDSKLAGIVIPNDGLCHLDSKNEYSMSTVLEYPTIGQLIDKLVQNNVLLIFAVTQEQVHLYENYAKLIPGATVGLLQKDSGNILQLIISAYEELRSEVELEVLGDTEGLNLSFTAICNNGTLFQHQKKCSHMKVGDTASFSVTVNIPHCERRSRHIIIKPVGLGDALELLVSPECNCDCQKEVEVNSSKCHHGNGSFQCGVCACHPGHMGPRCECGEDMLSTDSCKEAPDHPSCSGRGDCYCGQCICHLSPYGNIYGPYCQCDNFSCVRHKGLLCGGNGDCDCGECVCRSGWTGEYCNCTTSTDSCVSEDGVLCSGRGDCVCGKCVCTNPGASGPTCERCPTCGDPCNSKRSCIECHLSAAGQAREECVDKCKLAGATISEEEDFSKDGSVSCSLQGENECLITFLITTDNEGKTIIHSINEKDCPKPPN

IC50 | SMILES
< 50 nM | Cc1ccc(OCCN(CCCCc2ccc3c(n2)NCCC3)CC[C@H](Nc2ncnc3cccnc23)C(=O)O)cn1 [compound 57]
< 50 nM | O=C(O)[C@H](CCN(CCCCc1ccc2c(n1)NCCC2)CC1CCO1)Nc1ncnc2ccccc12 (stereo partly shown) [compound 129]
< 50 nM | COCCN(CCCCc1ccc2c(n1)NCCC2)CC[C@H](Nc1ncnc2c(Cl)cccc12)C(=O)O [compound 38]
50 to 250 nM | Cn1ncc2c(N[C@@H](CCN(CCCCc3ccc4c(n3)NCCC4)CCC(F)F)C(=O)O)ncnc21 [compound 133]
> 1000 nM | CO[C@H](C)CN(CCCCc1ccc2c(n1)NCCC2)CC[C@H](Nc1cc(-c2ccccc2)ncn1)C(=O)O [compound 128]
250 to 1000 nM | Cc1cc(N[C@@H](CCN(CCCCc2ccc3c(n2)NCCC3)CC(F)F)C(=O)O)nc(-c2ccncc2)n1 [compound 122]
> 1000 nM | COC[C@@H](F)CN(CCCCc1ccc2c(n1)NCCC2)CC[C@H](Nc1cc(-n2cccn2)ncn1)C(=O)O [compound 108]
> 1000 nM | CS(=O)(=O)CCN(CCCCc1ccc2c(n1)NCCC2)CC[C@H](Nc1ccnc(C(F)(F)F)n1)C(=O)O [compound 104]
50 to 250 nM | O=C(O)[C@H](CCN(CCCCc1ccc2c(n1)NCCC2)CCC(F)F)Nc1ncc(C(F)(F)F)cn1 [compound 132]
< 50 nM | O=C(O)[C@H](CCN(CCCCc1ccc2c(n1)NCCC2)CCOCC(F)(F)F)Nc1ncnc2cccnc12 [compound 51]
< 50 nM | O=C(O)[C@H](CCN(CCO)CCCCc1ccc2c(n1)NCCC2)Nc1ncnc2ccccc12 [compound 75]
< 50 nM | O=C(O)[C@H](CCN(CCCCc1ccc2c(n1)NCCC2)CCOc1ccccc1)Nc1nc(-c2cccnc2)nc2ccccc12 [compound 94]
50 to 250 nM | O=C(O)[C@H](CCN(CCCCc1ccc2c(n1)NCCC2)C1CC1)Nc1ccnc(C(F)(F)F)n1 [compound 115]
< 50 nM | COCCN(CCCCc1ccc2c(n1)NCCC2)CC[C@H](Nc1ncnc2cccc(F)c12)C(=O)O [compound 18]
< 50 nM | Cc1ccc2c(N[C@@H](CCN(CCCCc3ccc4c(n3)NCCC4)CCOc3ccc(C)nc3)C(=O)O)nc(C)nc2c1 [compound 56]
50 to 250 nM | O=C(O)[C@H](CCN(CCCCc1ccc2c(n1)NCCC2)CC(F)F)Nc1ncnc2ccccc12 [compound 8]
< 50 nM | COCCN(CCCCc1ccc2c(n1)NCCC2)CC[C@H](Nc1nc(C)nc2ccccc12)C(=O)O [compound 10]
> 1000 nM | O=C(O)[C@H](CCN(CCCCc1ccc2c(n1)NCCC2)C1CC(F)(F)C1)Nc1ncnc2ccccc12 [compound 9]
250 to 1000 nM | O=C(O)[C@H](CCN(CCCCc1ccc2c(n1)NCCC2)CC(F)F)Nc1nc(-c2cccnc2)nc2ccccc12 [compound 99]
50 to 250 nM | O=C(O)[C@H](CCN(CCCCc1ccc2c(n1)NCCC2)CC1(F)COC1)Nc1ncnc2ccccc12 [compound 147]
< 50 nM | O=C(O)[C@H](CCN(CCCCc1ccc2c(n1)NCCC2)CCC(F)F)Nc1ncnc2ccccc12 [compound 29]

IC50 | SMILES
< 50 nM | CO[C@H](C)CN(CCCCc1ccc2c(n1)NCCC2)CC[C@H](Nc1ncc(F)cn1)C(=O)O [compound 78]
< 50 nM | O=C(O)[C@H](CCN(CCCCc1ccc2c(n1)NCCC2)CCOc1ccccc1)Nc1ncnc2ccccc12 [compound 28]
> 1000 nM | O=C(O)[C@H](CCN(CCCCc1ccc2c(n1)NCCC2)CC(F)F)Nc1ncc(Br)cn1 [compound 96]
< 50 nM | CO[C@@H](C)CN(CCCCc1ccc2c(n1)NCCC2)CC[C@H](Nc1ncnc2ccccc12)C(=O)O [compound 25]
< 50 nM | Cc1nc(N[C@@H](CCN(CCCCc2ccc3c(n2)NCCC3)CC2CC(F)(F)C2)C(=O)O)c2ccc(F)cc2n1 [compound 33]
< 50 nM | CO[C@H](C)CN(CCCCc1ccc2c(n1)NCCC2)CCC(Nc1ncnc2ccccc12)C(=O)O (stereo partly shown) [compound 62]
< 50 nM | Cc1ncccc1OCCN(CCCCc1ccc2c(n1)NCCC2)CCC(Nc1ncnc2ccccc12)C(=O)O (stereo not shown) [compound 52]
< 50 nM | O=C(O)[C@H](CCN(CCCCc1ccc2c(n1)NCCC2)CC(CO)CO)Nc1ncnc2ccccc12 [compound 130]
< 50 nM | O=C(O)[C@H](CCN(CCCCc1ccc2c(n1)NCCC2)C1CC1)Nc1ncc(C(F)(F)F)cn1 [compound 114]
< 50 nM | COCCN(CCCCc1ccc2c(n1)NCCC2)CC[C@H](Nc1nccnc1C#N)C(=O)O [compound 67]
< 50 nM | COCCN(CCCCc1ccc2c(n1)NCCC2)CC[C@H](Nc1ncnc2cc(F)c(F)cc12)C(=O)O [compound 21]
250 to 1000 nM | CO[C@H](C)CN(CCCCc1ccc2c(n1)NCCC2)CC[C@H](Nc1ncc(C#N)cn1)C(=O)O [compound 84]
< 50 nM | CO[C@H](C)CN(CCCCc1ccc2c(n1)NCCC2)CC[C@H](Nc1ncnc2[nH]ncc12)C(=O)O [compound 71]
< 50 nM | COC[C@@H](F)CN(CCCCc1ccc2c(n1)NCCC2)CC[C@H](Nc1nc(-c2cccnc2)nc2ccccc12)C(=O)O [compound 109]
< 50 nM | COCCN(CCCCc1ccc2c(n1)NCCC2)CC[C@H](Nc1nc(C(F)(F)F)nc2ccccc12)C(=O)O [compound 14]
250 to 1000 nM | O=C(O)[C@H](CCN(CCCCc1ccc2c(n1)NCCC2)CC(F)F)Nc1ncnc2[nH]ncc12 [compound 112]
> 1000 nM | COCCN(CCCCc1ccc2c(n1)NCCC2)CC[C@H](Nc1ccnc2ccccc12)C(=O)O [compound 36]
< 50 nM | N#Cc1cnc(N[C@@H](CCN(CCCCc2ccc3c(n2)NCCC3)CCOc2ccccc2)C(=O)O)nc1 [compound 111]
> 1000 nM | CS(=O)(=O)CCN(CCCCc1ccc2c(n1)NCCC2)CC[C@H](Nc1ncc(Br)cn1)C(=O)O [compound 103]
< 50 nM | O=C(O)[C@H](CCN(CCCCc1ccc2c(n1)NCCC2)CCOc1ccccc1)Nc1ncnc2[nH]ncc12 [compound 90]
< 50 nM | COCCN(CCCCc1ccc2c(n1)NCCC2)CC[C@H](Nc1ncnc2cc(F)ccc12)C(=O)O [compound 7]

IC50 | SMILES
> 1000 nM | CS(=O)(=O)CCN(CCCCc1ccc2c(n1)NCCC2)CC[C@H](Nc1cc(-n2cccn2)ncn1)C(=O)O [compound 126]
< 50 nM | Cc1nc(N[C@@H](CCN(CCCCc2ccc3c(n2)NCCC3)CCOc2cncc(F)c2)C(=O)O)c2ccc(F)cc2n1 [compound 61]
< 50 nM | O=C(O)[C@H](CCN(CCCCc1ccc2c(n1)NCCC2)CCOc1ccccc1)Nc1cc(-n2cccn2)ncn1 [compound 91]
< 50 nM | O=C(O)[C@H](CCN(CCCCc1ccc2c(n1)NCCC2)CCOCC(F)(F)F)Nc1ncnc2ccccc12 [compound 39]
50 to 250 nM | CS(=O)(=O)CCN(CCCCc1ccc2c(n1)NCCC2)CC[C@H](Nc1ncnc2[nH]ncc12)C(=O)O [compound 125]
< 50 nM | COCCN(CCCCc1ccc2c(n1)NCCC2)CC[C@H](Nc1nc(C)nc2cc(F)ccc12)C(=O)O [compound 12]
50 to 250 nM | O=C(O)[C@H](CCN(CCCCc1ccc2c(n1)NCCC2)CCOc1ccc(F)cc1)Nc1ncc(Br)cn1 [compound 144]
< 50 nM | N#Cc1cnc(N[C@@H](CCN(CCCCc2ccc3c(n2)NCCC3)CCOc2ccc(F)cc2)C(=O)O)nc1 [compound 138]
> 1000 nM | O=C(O)[C@H](CCN(CCCCc1ccc2c(n1)NCCC2)CC(F)F)Nc1cc(-n2cccn2)ncn1 [compound 98]
> 1000 nM | Cn1ncc2c(N[C@@H](CCN(CCCCc3ccc4c(n3)NCCC4)CC(F)F)C(=O)O)ncnc21 [compound 88]
< 50 nM | Cn1ncc2c(N[C@@H](CCN(CCCCc3ccc4c(n3)NCCC4)CCOc3ccccc3)C(=O)O)ncnc21 [compound 82]
< 50 nM | Cn1ncc2c(N[C@@H](CCN(CCCF)CCCCc3ccc4c(n3)NCCC4)C(=O)O)ncnc21 [compound 136]
50 to 250 nM | Cn1ncc2c(N[C@@H](CCN(CCCCc3ccc4c(n3)NCCC4)CCS(C)(=O)=O)C(=O)O)ncnc21 [compound 101]
< 50 nM | O=C(O)[C@H](CCN(CCCCc1ccc2c(n1)NCCC2)CCOc1cc(F)cc(F)c1)Nc1ncnc2ccccc12 [compound 47]
> 1000 nM | O=C(O)[C@H](CCN(CCCCc1ccc2c(n1)NCCC2)CC(F)F)Nc1ccncn1 [compound 120]
< 50 nM | CCOCCN(CCCCc1ccc2c(n1)NCCC2)CC[C@H](Nc1ncnc2ccccc12)C(=O)O [compound 55]
< 50 nM | COCCN(CCCCc1ccc2c(n1)NCCC2)CC[C@H](Nc1cc(C(F)(F)F)nc(C)n1)C(=O)O [compound 22]
< 50 nM | CO[C@H](C)CN(CCCCc1ccc2c(n1)NCCC2)CC[C@H](Nc1nc(C)nc2ccccc12)C(=O)O [compound 66]
> 1000 nM | O=C(O)[C@H](CCN(CCCCc1ccc2c(n1)NCCC2)CC(F)F)Nc1ncc(C2CC2)cn1 [compound 146]
